In ChEMBL document CHEMBL1201862, “PubChem BioAssay data set” (2004):
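Five compound concentrations were applied to cells in 96-well plates for 48 hours; endpoints were derived by simple linear interpolation of the resulting dose-response curve. GI50 is the concentration that inhibits growth by half.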 Active and inactive are the calls of the source. No stated cut-off is given here; in the data, active = GI50 up to about 1.1 µM and inactive = higher.

Experiments:
Test in all cases: NCI anticancer screen, dose series, 48 h
CCRF-CEM = test system: CCRF-CEM
HCT-116 = test system: HCT-116
HCT-15 = test system: HCT-15
HL-60 = test system: HL-60
HOP-62 = test system: HOP-62
HOP-92 = test system: HOP-92
IGROV-1 = test system: IGROV-1
LOX IMVI = test system: LOX IMVI
MOLT-4 = test system: MOLT-4
NCI-H226 = test system: NCI-H226
NCI-H23 = test system: NCI-H23
OVCAR-4 = test system: OVCAR-4
OVCAR-5 = test system: OVCAR-5
RXF 393 = test system: RXF 393
SF-295 = test system: SF-295
SF-539 = test system: SF-539
SN12C = test system: SN12C
SNB-19 = test system: SNB-19
SNB-75 = test system: SNB-75
U-251 = test system: U-251

Compound | GI50 (CCRF-CEM) | GI50 (HCT-116) | GI50 (HCT-15) [µM] | GI50 (HL-60) | GI50 (HOP-62) | GI50 (HOP-92) | GI50 (IGROV-1) | GI50 (LOX IMVI) | GI50 (MOLT-4) | GI50 (NCI-H226) | GI50 (NCI-H23) | GI50 (OVCAR-4) | GI50 (OVCAR-5) | GI50 (RXF 393) | GI50 (SF-295) | GI50 (SF-539) | GI50 (SN12C) | GI50 (SNB-19) | GI50 (SNB-75) | GI50 (U-251)
O=C(O)c1cc(-c2ccc3cc4c(cc3c2)OCO4)nc2ccccc12 | 11.3 µM (inactive) | 19.5 µM (inactive) | 12.3 | 16.5 µM (inactive) | 41.1 µM (inactive) | 20.1 µM (inactive) | 29 µM (inactive) | 29.3 µM (inactive) | 28.8 µM (inactive) | 42.4 µM (inactive) | 43.8 µM (inactive) | > 100 µM (inactive) | 28.5 µM (inactive) | 54 µM (inactive) | 23.8 µM (inactive) | 92.9 µM (inactive) | 20.8 µM (inactive) | 25.7 µM (inactive) | 49.7 µM (inactive) | 19.7 µM (inactive)
CCC1(OC(=O)CN)C(=O)OCc2c1cc1n(c2=O)Cc2cc3ccccc3nc2-1 (centres undefined) | 0.01 µM (active) |  | 0.149 | 0.00764 µM (active) | 0.01 µM (active) | 0.547 µM (active) | 0.0411 µM (active) | < 0.0102 µM (active) | 0.01 µM (active) | 0.0134 µM (active) | 0.01 µM (active) | 0.12 µM (active) | 0.0457 µM (active) | 0.0378 µM (active) | 0.01 µM (active) | 0.01 µM (active) | 0.0113 µM (active) | 0.01 µM (active) | 0.0213 µM (active) | 0.01 µM (active)
CCN1CCC(O)(/C=C/c2ccc(C)cc2)C(C(=O)/C=C/c2ccc(C)cc2)C1 (centres undefined) | 1.73 µM (inactive) | 1.91 µM (inactive) | 4.06 | 1.79 µM (inactive) | 12.5 µM (inactive) | 6.81 µM (inactive) | 6.55 µM (inactive) | 1.31 µM (inactive) | 1.63 µM (inactive) | 15.5 µM (inactive) | 6.35 µM (inactive) | 9.82 µM (inactive) | 10.5 µM (inactive) | 2.79 µM (inactive) | 10.6 µM (inactive) | 3.61 µM (inactive) | 7.69 µM (inactive) | 9.42 µM (inactive) | 9.79 µM (inactive) | 3.12 µM (inactive)
CCCS(=O)(=O)O | > 100 µM (inactive) |  | > 100 | > 100 µM (inactive) | > 100 µM (inactive) | > 100 µM (inactive) | > 100 µM (inactive) | > 100 µM (inactive) | > 100 µM (inactive) | > 100 µM (inactive) | > 100 µM (inactive) | > 100 µM (inactive) | > 100 µM (inactive) | > 100 µM (inactive) | > 100 µM (inactive) | > 100 µM (inactive) |  | > 100 µM (inactive) | > 100 µM (inactive) | > 100 µM (inactive)
O=C(NC1C/C(=N/O)c2c(Br)sc(Br)c21)C(F)(F)F (centres undefined) | 20.2 µM (inactive) | 17.1 µM (inactive) | 24.8 | 32.4 µM (inactive) |  | 3.65 µM (inactive) | 94 µM (inactive) | 25.5 µM (inactive) | 26.3 µM (inactive) | 18.4 µM (inactive) | 16 µM (inactive) | 13.8 µM (inactive) | > 100 µM (inactive) | 11.3 µM (inactive) | 31 µM (inactive) | 17.3 µM (inactive) | 21.2 µM (inactive) | 41.7 µM (inactive) | 29.5 µM (inactive) | 16.7 µM (inactive)
C=CCNC(=O)N(CCC)CCCCC(NC(C)=O)C(=O)NCc1ccccc1 (centres undefined) | > 100 µM (inactive) |  | > 100 | > 100 µM (inactive) | > 100 µM (inactive) | > 100 µM (inactive) | > 100 µM (inactive) | > 100 µM (inactive) | > 100 µM (inactive) | > 100 µM (inactive) | > 100 µM (inactive) | > 100 µM (inactive) | > 100 µM (inactive) | > 100 µM (inactive) | > 100 µM (inactive) | > 100 µM (inactive) | > 100 µM (inactive) | > 100 µM (inactive) | > 100 µM (inactive) | > 100 µM (inactive)
CC(C)(C)C(=O)OCC1C(=O)OCC1C(=O)N1Cc2cc3ccccc3nc2C1 (centres undefined) | 0.711 µM (active) | 2.09 µM (inactive) | 1.75 | 0.748 µM (active) | 14.4 µM (inactive) | 1.5 µM (inactive) | 15 µM (inactive) | 4.34 µM (inactive) | 1.06 µM (active) | 6.56 µM (inactive) | 4.55 µM (inactive) | 2.38 µM (inactive) | 10.5 µM (inactive) | 1.5 µM (inactive) | 14.3 µM (inactive) | 4.46 µM (inactive) | 5.28 µM (inactive) | 18.3 µM (inactive) | 7.74 µM (inactive) | 9.2 µM (inactive)
COC1OC(CS(=O)(=O)O)C(O)C(O)C1O (centres undefined) | > 100 µM (inactive) | > 100 µM (inactive) | > 100 | > 100 µM (inactive) | > 100 µM (inactive) | > 100 µM (inactive) | > 100 µM (inactive) | > 100 µM (inactive) | > 100 µM (inactive) | > 100 µM (inactive) | > 100 µM (inactive) | > 100 µM (inactive) | > 100 µM (inactive) | > 100 µM (inactive) | > 100 µM (inactive) |  | > 100 µM (inactive) | > 100 µM (inactive) | > 100 µM (inactive) | > 100 µM (inactive)
CC(=O)[C@H]1CCC2[C@@H]3CC=C4C(O)C(OS(=O)(=O)O)CC[C@]4(C)C3CC[C@@]21C (some centres undefined) | > 100 µM (inactive) | > 100 µM (inactive) | > 100 | > 31.6 µM (inactive) | > 100 µM (inactive) | > 100 µM (inactive) | > 100 µM (inactive) | > 100 µM (inactive) | > 100 µM (inactive) | > 100 µM (inactive) | > 100 µM (inactive) | > 100 µM (inactive) | > 100 µM (inactive) | > 100 µM (inactive) | > 100 µM (inactive) | > 100 µM (inactive) | > 100 µM (inactive) | > 100 µM (inactive) | > 100 µM (inactive) | > 100 µM (inactive)
CC1C(=O)N(c2ccccc2)NC12CCCc1ccccc12 (centres undefined) | > 100 µM (inactive) | > 100 µM (inactive) | > 100 | > 100 µM (inactive) | > 100 µM (inactive) | > 100 µM (inactive) | > 100 µM (inactive) | > 100 µM (inactive) | > 100 µM (inactive) | > 100 µM (inactive) | > 100 µM (inactive) | > 100 µM (inactive) | > 100 µM (inactive) | > 100 µM (inactive) | > 100 µM (inactive) | > 100 µM (inactive) | > 100 µM (inactive) | > 100 µM (inactive) | > 100 µM (inactive) | > 100 µM (inactive)
C=CC(=O)NC(O)(C(=O)OCC)C(F)(F)F (centres undefined) | > 100 µM (inactive) | > 100 µM (inactive) | > 100 | 35 µM (inactive) | > 100 µM (inactive) | > 100 µM (inactive) | > 100 µM (inactive) | > 100 µM (inactive) | > 100 µM (inactive) | > 100 µM (inactive) | > 100 µM (inactive) | > 100 µM (inactive) | > 100 µM (inactive) | > 100 µM (inactive) | > 100 µM (inactive) | > 100 µM (inactive) | > 100 µM (inactive) | > 100 µM (inactive) | > 100 µM (inactive) | > 100 µM (inactive)
CN(C)c1ccc(/C=C2/SC(=S)NC2=O)cc1 | > 100 µM (inactive) | 33.2 µM (inactive) | > 100 | > 100 µM (inactive) | 52.2 µM (inactive) | > 100 µM (inactive) | > 100 µM (inactive) | > 100 µM (inactive) | > 100 µM (inactive) | > 100 µM (inactive) | > 100 µM (inactive) | > 100 µM (inactive) | 21.9 µM (inactive) | > 100 µM (inactive) | > 100 µM (inactive) | > 100 µM (inactive) | > 100 µM (inactive) | > 100 µM (inactive) | 95.3 µM (inactive) | 61.7 µM (inactive)
Cc1[nH]c2ncn(/N=C/c3ccccc3O)c(=N)c2c1Cc1ccccc1 | 39.4 µM (inactive) | 43.4 µM (inactive) | 46.3 | 23.6 µM (inactive) | > 100 µM (inactive) | > 100 µM (inactive) | > 100 µM (inactive) | 59.2 µM (inactive) | 30.8 µM (inactive) | 75.5 µM (inactive) | 50.6 µM (inactive) | 63.5 µM (inactive) | > 100 µM (inactive) | > 100 µM (inactive) | 58.6 µM (inactive) | 30 µM (inactive) | 67 µM (inactive) | > 100 µM (inactive) | 91 µM (inactive) | 19.6 µM (inactive)
CC1[C@@H]2CC=C3C4CCC5Cc6nc7c(nc6C[C@@]5(C)C4CC(=O)[C@]32CO[C@@]1(O)C(O)CC(C)(C)O)CC1CCC2C3=C[C@H]4O[C@@]5(O[C@@](C)(CO)C[C@@H]5O)C(C)[C@@]4(O)[C@]3(C)[C@@H](O)CC2[C@]1(C)C7 (some centres undefined) | 0.000753 µM (active) | 0.023 µM (active) | 0.015 | < 0.00036 µM (active) | 0.000495 µM (active) | 0.0041 µM (active) | 0.0101 µM (active) | 0.0069 µM (active) | 0.00157 µM (active) | 0.00622 µM (active) | 0.00308 µM (active) | 0.431 µM (active) | 0.00773 µM (active) | < 0.00036 µM (active) | < 0.00036 µM (active) | 0.00201 µM (active) | 0.274 µM (active) | 0.0366 µM (active) | < 0.00036 µM (active) | < 0.00036 µM (active)
